Measurements published in patent publication US8530679B2, “Delta 9—tetrahydrocannabinol processing” (Resolution Chemicals Limited, priority 2007, dated 2013).

Columns and labels:
[1] = cited from earlier work; for psychomimetic activity: constituents of cannabis
[2] = susceptible to rearrangement and oxidation; cited from earlier work
[3] = stability of Δ9-THC on handling and storage; details: solution prepared below room temperature, typically below 0° C., in some instances −40° C. and even −78° C.

| SMILES | psychomimetic activity [1] | psychomimetic activity relative to Δ8-THC ([1]; greater than Δ8-THC) [times] | stability at room temperature [2] | stability / degradation in solution of low boiling point solvent [3] |
| --- | --- | --- | --- | --- |
| CCCCCc1cc2c(c(O)c1C(=O)O)[C@@H]1C=C(C)CC[C@H]1C(C)(C)O2 [THCA-A, Δ9-THC carboxylic acid] | psychomimetically inactive |  |  |  |
| CCCCCc1cc(O)c2c(c1)OC(C)(C)[C@@H]1CCC(C)=C[C@@H]21 [Δ9-THC, Δ9-tetrahydrocannabinol] |  | 20 | relatively unstable | no significant degradation |
| C=C(C)[C@@H]1CCC(C)=C[C@H]1c1c(O)cc(CCCCC)cc1O [Cannabidiol] | little activity |  |  |  |
